Test in all cases: Ras-Raf disruption / FRET / MOA assay (BRAF RBD)
Type in all cases: biochemical

In one experiment the target is NRAS G12C (Homo sapiens, UniProt P01111+P62937, G12C). The conditions noted are these: NRAS G12C; read-out: NRAS G12C FRET data IC50. The source says:
(§1) Disruption of […] Ras-binding Domain (BRAF^RBD) Interaction with K-Ras by Compounds of the Invention (also Called a FRET Assay or an MOA Assay)
(§2) Note—The following protocol describes a procedure for monitoring disruption of K-Ras G12C (GMP-PNP) binding to BRAF^RBD by a compound of the invention. This protocol may also be executed substituting other Ras proteins or nucleotides, such as K-Ras G12D and K-Ras G13D.
(§3) The purpose of this biochemical assay was to measure the ability of test compounds to facilitate ternary complex formation between a nucleotide-loaded K-Ras isoform and Cyclophilin A; the resulting ternary complex disrupts binding to a BRAF^RBD construct, inhibiting K-Ras signaling through a RAF effector. Data is reported as IC50 values.
(§4) In assay buffer containing 25 mM HEPES pH 7.3, 0.002% Tween20, 0.1% BSA, 100 mM NaCl and 5 mM MgCl2, tagless Cyclophilin A, His6-K-Ras-GMPPNP, and GST-BRAF^RBD were combined in a 384-well assay plate at final concentrations of 25 μM, 12.5 nM, and 50 nM, respectively. Compound was present in plate wells as a 10-point 3-fold dilution series starting at a final concentration of 30 μM. After incubation at 25° C. for 3 hours, a mixture of anti-His Eu-W1024 and anti-GST allophycocyanin was then added to assay sample wells at final concentrations of 10 nM and 50 nM, respectively, and the reaction incubated for an additional 1.5 hours. […] Compounds that facilitate disruption of a K-Ras:RAF complex were identified as those eliciting a decrease in the TR-FRET ratio relative to DMSO control wells.

For a further experiment, the target named is KRAS G12S (Homo sapiens, UniProt P01116+P62937, G12S). As to conditions: Ras-Raf disruption, with Cyclophilin A; read-out: KRAS G12S FRET data IC50.
Description: as §1, §2, §3, §4

A further experiment addresses KRAS WT (Homo sapiens, UniProt P01116+P62937). The conditions noted are these: Ras-Raf disruption, with Cyclophilin A; read-out: KRAS WT FRET data IC50.
Description: as §1, §2, §3, §4

The next experiment addresses KRAS G12V (Homo sapiens, UniProt P01116+P62937, G12V). The conditions noted are these: Ras-Raf disruption, with Cyclophilin A; read-out: KRAS G12V FRET data IC50.
Description: as §1, §2, §3, §4

In the next experiment the target is KRAS G12D (Homo sapiens, UniProt P01116+P62937, G12D). The conditions noted are these: Ras-Raf disruption, with Cyclophilin A; read-out: KRAS G12D FRET data IC50.
Description: as §1, §2, §3, §4

For a further experiment, the target named is KRAS G13C (Homo sapiens, UniProt P01116+P62937, G13C). As to conditions: Ras-Raf disruption, with Cyclophilin A; read-out: KRAS G13C FRET data IC50.
Description: as §1, §2, §3, §4

The target of the next experiment is KRAS G13D (Homo sapiens, UniProt P01116+P62937, G13D). The conditions noted are these: Ras-Raf disruption, with Cyclophilin A; read-out: KRAS G13D FRET data IC50.
Description: as §1, §2, §3, §4

The next experiment concerns the target KRAS G12C (Homo sapiens, UniProt P01116+P62937, G12C). As to conditions: Ras-Raf disruption, with Cyclophilin A; read-out: KRAS G12C FRET data IC50.
Description: as §1, §2, §3, §4
The purpose of this biochemical assay is to measure the ability of test compounds to facilitate ternary complex formation between a nucleotide-loaded Ras isoform and cyclophilin A; the resulting ternary complex disrupts binding to a BRAF^RBD construct, inhibiting Ras signaling through a RAF effector.
In assay buffer containing 25 mM HEPES pH 7.3, 0.002% Tween20, 0.1% BSA, 100 mM NaCl and 5 mM MgCl2, tagless Cyclophilin A, His6-K-Ras-GMPPNP (or other Ras variant), and GST-BRAF^RBD are combined in a 384-well assay plate at final concentrations of 25 μM, 12.5 nM and 50 nM, respectively. Compound is present in plate wells as a 10-point 3-fold dilution series starting at a final concentration of 30 μM. After incubation at 25° C. for 3 hours, a mixture of Anti-His Eu-W1024 and anti-GST allophycocyanin is then added to assay sample wells at final concentrations of 10 nM and 50 nM, respectively, and the reaction incubated for an additional 1.5 hours. […] Compounds that facilitate disruption of a Ras:RAF complex are identified as those eliciting a decrease in the TR-FRET ratio relative to DMSO control wells.

Where only a bound is given, the exact number is not on record here.

The term IC50 denotes the point on the concentration scale where inhibition reaches its midpoint.

Chain of KRAS G13D (P01116 1-169 isoform P01116-2 G13D limits assumed): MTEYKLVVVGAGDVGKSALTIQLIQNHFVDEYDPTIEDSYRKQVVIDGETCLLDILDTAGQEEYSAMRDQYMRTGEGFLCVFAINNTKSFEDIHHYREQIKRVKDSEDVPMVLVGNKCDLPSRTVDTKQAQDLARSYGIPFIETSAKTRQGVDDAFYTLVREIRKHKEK
Chain of KRAS G13D (P62937 whole entry): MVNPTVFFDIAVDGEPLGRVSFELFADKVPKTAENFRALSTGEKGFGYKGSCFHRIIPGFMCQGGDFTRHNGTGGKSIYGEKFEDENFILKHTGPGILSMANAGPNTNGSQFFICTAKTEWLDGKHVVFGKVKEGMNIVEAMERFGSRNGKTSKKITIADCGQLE
Chain of KRAS G12S (P01116 1-169 isoform P01116-2 G12S limits assumed): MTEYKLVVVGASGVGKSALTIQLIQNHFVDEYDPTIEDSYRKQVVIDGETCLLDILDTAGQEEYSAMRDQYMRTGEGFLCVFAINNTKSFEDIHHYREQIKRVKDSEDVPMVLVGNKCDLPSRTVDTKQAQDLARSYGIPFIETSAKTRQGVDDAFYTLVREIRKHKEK
Chain of KRAS G12S (P62937 whole entry): as the sequence (P62937 whole entry) above
Chain of KRAS G12D (P01116 1-169 isoform P01116-2 G12D limits assumed): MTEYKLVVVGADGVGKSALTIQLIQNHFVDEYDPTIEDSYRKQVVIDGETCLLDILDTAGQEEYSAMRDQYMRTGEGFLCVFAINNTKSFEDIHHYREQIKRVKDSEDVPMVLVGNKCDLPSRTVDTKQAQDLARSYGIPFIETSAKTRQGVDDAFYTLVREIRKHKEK
Chain of KRAS G12D (P62937 whole entry): as the sequence (P62937 whole entry) above
Chain of NRAS G12C (P01111 whole entry G12C, the tested form may be a part): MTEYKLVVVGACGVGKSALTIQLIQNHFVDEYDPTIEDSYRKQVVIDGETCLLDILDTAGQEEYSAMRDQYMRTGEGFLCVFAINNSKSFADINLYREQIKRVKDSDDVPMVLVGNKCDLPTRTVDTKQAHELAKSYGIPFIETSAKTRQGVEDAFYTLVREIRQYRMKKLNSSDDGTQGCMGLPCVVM
Chain of NRAS G12C (P62937 whole entry, the tested form may be a part): as the sequence (P62937 whole entry) above
Chain of KRAS G12C (P01116 1-169 isoform P01116-2 G12C limits assumed): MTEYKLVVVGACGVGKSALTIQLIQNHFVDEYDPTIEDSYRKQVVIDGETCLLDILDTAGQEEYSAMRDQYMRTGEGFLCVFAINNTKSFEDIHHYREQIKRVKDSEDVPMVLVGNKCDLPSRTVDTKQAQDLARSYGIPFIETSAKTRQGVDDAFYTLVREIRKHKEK
Chain of KRAS G12C (P62937 whole entry): as the sequence (P62937 whole entry) above
Chain of KRAS G12V (P01116 1-169 isoform P01116-2 G12V limits assumed): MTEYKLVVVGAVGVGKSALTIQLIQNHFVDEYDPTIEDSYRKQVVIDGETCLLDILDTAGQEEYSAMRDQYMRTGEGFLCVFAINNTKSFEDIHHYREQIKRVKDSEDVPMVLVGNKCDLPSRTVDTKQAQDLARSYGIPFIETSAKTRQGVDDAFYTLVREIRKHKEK
Chain of KRAS G12V (P62937 whole entry): as the sequence (P62937 whole entry) above
Chain of KRAS WT (P01116 1-169 isoform P01116-2 limits assumed): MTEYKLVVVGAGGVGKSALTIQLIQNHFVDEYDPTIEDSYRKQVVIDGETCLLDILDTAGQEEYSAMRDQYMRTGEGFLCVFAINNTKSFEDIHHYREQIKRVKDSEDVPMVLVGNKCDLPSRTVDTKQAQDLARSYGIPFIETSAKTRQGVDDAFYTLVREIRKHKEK
Chain of KRAS WT (P62937 whole entry): as the sequence (P62937 whole entry) above
Chain of KRAS G13C (P01116 1-169 isoform P01116-2 G13C limits assumed): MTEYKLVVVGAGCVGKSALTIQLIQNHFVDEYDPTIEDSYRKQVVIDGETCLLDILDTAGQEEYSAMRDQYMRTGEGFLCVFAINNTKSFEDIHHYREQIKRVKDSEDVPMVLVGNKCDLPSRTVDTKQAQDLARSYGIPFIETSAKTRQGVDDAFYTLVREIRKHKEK
Chain of KRAS G13C (P62937 whole entry): as the sequence (P62937 whole entry) above

On to `CCn1c(-c2cccnc2[C@H](C)OC)c2c3cc(ccc31)-c1cc(O)cc(c1)C[C@H](NC(=O)[C@H](C(C)C)N(C)C(=O)N1CCN(C(=O)[C@H]3CN3)CC1=O)C(=O)N1CCC[C@H](N1)C(=O)OCC(C)(C)C2` (atropisomer, axis not shown) [Example 183], for which the IC50 on NRAS G12C lay within 10 to 100 nM; on KRAS G12S, 100 to 1000 nM; at KRAS WT, 10 to 100 nM; on KRAS G12V, 100 to 1000 nM; at KRAS G12D, 1000 to 10000 nM; at KRAS G13C it was 10 to 100 nM. Moreover, the IC50 at KRAS G13D is 100 to 1000 nM; at KRAS G12C, under 10 nM.

Consider `CCn1c(-c2cccnc2[C@H](C)OC)c2c3cc(ccc31)-c1cc(O)cc(c1)C[C@H](NC(=O)[C@H](C(C)C)N(C)C(=O)[C@]1(F)CCN(C(=O)[C@@H]3CN3)C1)C(=O)N1CCC[C@H](N1)C(=O)OCC(C)(C)C2` (atropisomer, axis not shown) [Example 184], for which the IC50 at NRAS G12C was under 10 nM; on KRAS G12S, 100 to 1000 nM; on KRAS WT, 100 to 1000 nM; at KRAS G12V it was 100 to 1000 nM; at KRAS G12D, 100 to 1000 nM; on KRAS G13C, 10 to 100 nM. The IC50 on KRAS G13D was 100 to 1000 nM; at KRAS G12C, under 10 nM.

For the compound `CCn1c(-c2cccnc2[C@H](C)OC)c2c3cc(ccc31)-c1cc(O)cc(c1)C[C@H](NC(=O)[C@H](C(C)C)N(C)C(=O)[C@@]1(F)CCN(C(=O)[C@@H]3CN3)C1)C(=O)N1CCC[C@H](N1)C(=O)OCC(C)(C)C2` (atropisomer, axis not shown) [Example 185], the half-inhibitory concentration (IC50) on NRAS G12C was 10 to 100 nM; on KRAS G12S, 100 to 1000 nM; at KRAS WT, 100 to 1000 nM; at KRAS G12V, 100 to 1000 nM; at KRAS G12D, 100 to 1000 nM; at KRAS G13C, 10 to 100 nM. Further, the IC50 on KRAS G13D is 100 to 1000 nM; at KRAS G12C it was 10 to 100 nM.

In the case of `CCn1c(-c2cccnc2[C@H](C)OC)c2c3cc(ccc31)-c1cc(O)cc(c1)C[C@H](NC(=O)[C@H](C(C)C)N(C)C(=O)c1ccc(NC(=O)[C@@H]3CN3)cn1)C(=O)N1CCC[C@H](N1)C(=O)OCC(C)(C)C2` (atropisomer, axis not shown) [Example 187], the IC50 lay within 100 to 1000 nM at NRAS G12C; 100 to 1000 nM on KRAS G12S; 100 to 1000 nM on KRAS WT; 100 to 1000 nM at KRAS G12V; 100 to 1000 nM at KRAS G12D; 10 to 100 nM on KRAS G13C. Also, the IC50 at KRAS G13D and at KRAS G12C was 100 to 1000 nM each time.

Regarding `CCn1c(-c2cccnc2[C@H](C)OC)c2c3cc(ccc31)-c1cc(O)cc(c1)C[C@H](NC(=O)[C@H](C(C)C)N(C)C(=O)N1CC(NC(=O)[C@@H]3CN3)C1)C(=O)N1CCC[C@H](N1)C(=O)OCC(C)(C)C2` (atropisomer, axis not shown) [Example 188], the IC50 at NRAS G12C was 10 to 100 nM; on KRAS G12S, 100 to 1000 nM; on KRAS WT, 100 to 1000 nM; at KRAS G12V, 100 to 1000 nM; on KRAS G12D it was 100 to 1000 nM; at KRAS G13C, 10 to 100 nM. In addition, the IC50 at KRAS G13D is 100 to 1000 nM; at KRAS G12C, 10 to 100 nM.

Turning to `CCn1c(-c2cccnc2[C@H](C)OC)c2c3cc(ccc31)-c1cc(O)cc(c1)C[C@H](NC(=O)[C@H](C(C)C)N(C)C(=O)N1CC(NC(=O)[C@H]3CN3)C1)C(=O)N1CCC[C@H](N1)C(=O)OCC(C)(C)C2` (atropisomer, axis not shown) [Example 189], the IC50 at NRAS G12C lay within 10 to 100 nM; at KRAS G12S, 100 to 1000 nM; on KRAS WT it was 10 to 100 nM; at KRAS G12V it was 10 to 100 nM; at KRAS G12D it was 100 to 1000 nM; at KRAS G13C it was 10 to 100 nM. Besides, the 50% inhibitory concentration (IC50) lay in the range of 100 to 1000 nM at KRAS G13D and 10 to 100 nM on KRAS G12C.

Consider `CCn1c(-c2cccnc2[C@H](C)OC)c2c3cc(ccc31)-c1cc(O)cc(c1)C[C@H](NC(=O)[C@H](C(C)C)N(C)C(=O)N1CCCN(C(=O)[C@H]3CN3)CC1)C(=O)N1CCC[C@H](N1)C(=O)OCC(C)(C)C2` (atropisomer, axis not shown) [Example 190], for which the IC50 on NRAS G12C was 10 to 100 nM; at KRAS G12S it was 10 to 100 nM; on KRAS WT, 10 to 100 nM; on KRAS G12V, 10 to 100 nM; at KRAS G12D, 100 to 1000 nM; at KRAS G13C, 10 to 100 nM. In addition, the 50% inhibitory concentration (IC50) on KRAS G13D was 100 to 1000 nM; on KRAS G12C, under 10 nM.

Turning to `CCn1c(-c2cccnc2[C@H](C)OC)c2c3cc(ccc31)-c1cc(O)cc(c1)C[C@H](NC(=O)[C@H](C(C)C)N(C)C(=O)[C@H]1CCN(C(=O)[C@@H]3N[C@@H]3C3CC3)C1)C(=O)N1CCC[C@H](N1)C(=O)OCC(C)(C)C2` (atropisomer, axis not shown) [Example 198], the IC50 on NRAS G12C was under 10 nM; on KRAS G12S it was 10 to 100 nM; on KRAS WT, 10 to 100 nM; at KRAS G12V, 100 to 1000 nM; at KRAS G12D it was 10 to 100 nM; on KRAS G13C, 10 to 100 nM. For the same compound, the results for the IC50 on KRAS G13D and at KRAS G12C were 10 to 100 nM and under 10 nM, respectively.

Turning to `CCn1c(-c2cccnc2[C@H](C)OC)c2c3cc(ccc31)-c1cc(O)cc(c1)C[C@H](NC(=O)[C@H](C(C)C)N(C)C(=O)[C@H]1CCN(C(=O)[C@H]3CN3)C1)C(=O)N1CCC[C@H](N1)C(=O)OCC(C)(C)C2` (single isomer, unassigned) [Example 43B], the IC50 on NRAS G12C lay within 10 to 100 nM; on KRAS G12S it was 1000 to 10000 nM; on KRAS G12V, 1000 to 10000 nM; at KRAS G12D it was 1000 to 10000 nM; on KRAS G13C it was 1000 to 10000 nM; at KRAS G13D it was 1000 to 10000 nM. Besides, the IC50 at KRAS G12C lay in the range of 10 to 100 nM.

`CCCN=C=NCCC(=O)N(C)[C@H](C(=O)N[C@H]1Cc2cccc(c2)-c2ccc3c(c2)c(c(-c2cnccc2COC)n3CC)CC(C)(C)COC(=O)[C@@H]2CCCN(N2)C1=O)C(C)C` [22 A and B]: the IC50 on NRAS G12C is 10 to 100 nM; on KRAS G12S it was 1000 to 10000 nM; at KRAS WT it was 1000 to 10000 nM; at KRAS G12V it was 1000 to 10000 nM; at KRAS G13C, 100 to 1000 nM; at KRAS G13D, over 10000 nM. Also, the IC50 at KRAS G12C lay within 10 to 100 nM.

As for `CCn1c(-c2cccnc2[C@H](C)OC)c2c3cc(ccc31)-c1cc(O)cc(c1)C[C@H](NC(=O)[C@H](C(C)C)N(C)C(=O)C1CC3(C1)CN(C(=O)[C@H]1CN1)C3)C(=O)N1CCC[C@H](N1)C(=O)OCC(C)(C)C2` [Example 181], the IC50 on NRAS G12C fell in the range of 10 to 100 nM; at KRAS G12S, 100 to 1000 nM; at KRAS WT, 100 to 1000 nM; at KRAS G12V, 100 to 1000 nM; at KRAS G13C it was 10 to 100 nM; on KRAS G13D, 100 to 1000 nM. Moreover, at KRAS G12C, the IC50 lay within 10 to 100 nM.
